Data as given in paper PMC10223019, “Preclinical Evaluation of a PSMA-Targeting Homodimer with an Optimized Linker for Imaging of Prostate Cancer” (Molecules, 2023).

Experiments:
[1] = system: PSMA expressing LS174T cells; experiment: Internalization and cell uptake assay; format: cell-based, human; conditions: 2 h 37 °C
Description: LS174T human colon carcinoma cells transfected with human PSMA were obtained from Dr. Sandra Heskamp (Radboud UMC, Nijmegen). Cells were cultured in RPMI-1640 media supplemented with 2 mM glutamine, 10% fetal bovine serum (FBS) and 0.3 mg/mL G418 (Geneticin, Sigma Aldrich, St. Louis, MO, USA).
Cells were seeded (1.2 × 10^6 cells/well) and cultured to confluency for 24 h prior to experiments. We prepared 10^−9 M solutions of [^111In]In-PSMA-617, [^111In]In-22, and [^111In]In-30 in internalization media (RPMI, 20 mM HEPES, 1% BSA, pH 7.4). The media were removed from each well, and they were rinsed twice with PBS at rt. 2 mL of the radioactive compound was then added to each well and incubated at 37 °C for 2 h. For the internalization assay, the media containing radioactive compound were removed, and each well was washed twice with cold PBS. A total of 1 mL of Glycine buffer (50 mM glycine, 100 mM NaCl, pH 2.8) was added immediately and incubated for 10 min at rt. The glycine wash was then collected into counting tubes (membrane-bound fraction). An extra wash was performed and collected in the same tubes. A total of 1 mL of NaOH (1 M) was then added to each tube and left for 15 min at rt. The lysate (internalized fraction) was then collected in separate counting tubes, together with one extra NaOH wash. Data were normalized to 1,000,000 cells and percentage added dose.

[2] = system: BALB/c nude mice bearing LS174T PSMA-positive tumor xenografts; experiment: Ex vivo biodistribution studies; format: in vivo
Description: Animal experiments were performed in 8–10 weeks old male BALB/c nude mice (Janvier Labs, Le Genest-Saint-Isle, France). Animals were housed in individually ventilated cages (Blue line IVC, 4 mice per cage) under nonsterile standard conditions with cage enrichment present and free access to chlorophyll-free animal chow (Sniff GmbH, Soest, Germany) and water and acclimated for 1 week before experiments. Mice were subcutaneously inoculated with 4.0 × 10^6 LS174T cells in the right flank, diluted in 100 μL of cell suspension. Seven days after tumor cell inoculation, when xenografts were approximately 0.2–0.3 cm^3, the tracers were injected intravenously via the tail vein. All experiments were approved by the institutional Animal Welfare Committee and were conducted in accordance with the guidelines of the Revised Dutch Act on Animal Experimentation (WOD).
Mice were intravenously injected with ~1 nmol of either [^111In]In-PSMA-617, [^111In]In-22 or [^111In]In-30 with molar activity of 5 MBq/nmol for ex vivo biodistribution studies. Mice (n = 4/timepoint) were euthanized by cervical dislocation at 1, 4, and 24 h p.i. A block group was included, and mice were euthanized at 4 h p.i. Organs were collected in tubes and counted in the gamma counter, where the calibration factor was determined by measuring different known activities of indium-111.

[3] = Stability in phosphate-buffered saline (PBS), radio-HPLC; format: physicochemical; conditions: 24 h post-incubation, 37 °C, indium-111 labeled, intact fraction
Description: [^111In]In-22 or [^111In]In-30 (~10 MBq, 20 µL) was mixed with 80 μL of PBS (0.01 M, pH 7.4) and incubated at 37 °C for up to 24 h. A sample of the PBS solution was loaded directly onto the radio-HPLC at 1, 4, and 24 h post-incubation.

[4] = Stability in mouse serum, radio-HPLC; format: in vitro ADME
Description: [^111In]In-22 or [^111In]In-30 (~35 MBq, 70 µL) was mixed with 330 μL of mouse serum and incubated at 37 °C for up to 24 h. After 1, 4, and 24 h incubation, 50 μL of the mouse serum solution was added to a separate vial containing 50 µL of acetonitrile. The sample was centrifuged at 5000× g for 20 min. The supernatant was analyzed by radio-HPLC.

[5] = LogD7.4 by shake-flask method (PBS/n-octanol); format: physicochemical; conditions: LogD7.4, PBS pH 7.4/n-octanol, indium-111 labeled compound
Description: The distribution coefficients (LogD7.4 values) were determined by a shake-flask method, in which 2 μL (~0.5 MBq) of the labeling solution ([^111In]In-22 or [^111In]In-30) were added to an Eppendorf tube containing 1 mL of PBS (0.01 M, pH 7.4)/n-octanol (v/v, 1:1). After vigorous vortexing, the solution was centrifuged at 2500× g for 15 min for phase separation. Samples (3 × 10 μL) of the two phases were taken out and measured in a gamma counter. LogD7.4 values were calculated by using the following equation: LogD7.4 = log [(counts in octanol phase)/(counts in aqueous phase)] and the experiment was performed in triplicate.

[6] = 4 h p.i. block group (excess unlabeled PSMA ligand)

CC(C)C[C@H](NC(=O)[C@H](Cc1ccccc1)NC(=O)[C@H](CC(=O)O)NC(=O)CCC(C(=O)O)N1CCN(CC(=O)[O-])CCN(CC(=O)[O-])CCN(CC(=O)[O-])CC1)[C@@H](O)CC(=O)NCCCCCC(=O)NCCCC[C@H](NC(=O)N[C@@H](CCC(=O)O)C(=O)O)C(=O)O.[111In+3] (stereo partly drawn) [[^111In]In-22]
Internalized fraction ([1]; 10^-9 M, NaOH lysate): 0.53 ± 0.08 % AD
Membrane-bound uptake ([1]; 10^-9 M, glycine wash): 1.02 ± 0.15 % AD
Total uptake ([1]; 10^-9 M, normalized to 1,000,000 cells): 1.55 ± 0.21 % AD
Internalized fraction as share of total uptake (internalization) [1]: 34.2%
Membrane-bound uptake as share of total uptake [1]: 66%
Membrane-bound uptake as share of total uptake ([1]; listed as [111In]In-22): 65.8%
Tumor-to-muscle (T/M) ratio ([2]; 1 h p.i.): 31
Blood uptake ([2]; 1 h p.i., i.v. ~1 nmol): 0.14 ± 0.01 % ID/g
Bone uptake ([2]; 1 h p.i., i.v. ~1 nmol): 0.20 ± 0.01 % ID/g
Heart uptake ([2]; 1 h p.i., i.v. ~1 nmol): 0.13 ± 0.05 % ID/g
Intestines uptake ([2]; 1 h p.i., i.v. ~1 nmol): 0.26 ± 0.17 % ID/g
Kidney uptake ([2]; 1 h p.i., i.v. ~1 nmol): 22.56 ± 2.59 % ID/g
Liver uptake ([2]; 1 h p.i., i.v. ~1 nmol): 0.17 ± 0.03 % ID/g
Lung uptake ([2]; 1 h p.i., i.v. ~1 nmol): 0.45 ± 0.07 % ID/g
Muscle uptake ([2]; 1 h p.i., i.v. ~1 nmol): 0.07 ± 0.01 % ID/g
Pancreas uptake ([2]; 1 h p.i., i.v. ~1 nmol): 0.22 ± 0.03 % ID/g
Prostate uptake ([2]; 1 h p.i., i.v. ~1 nmol): 0.51 ± 0.25 % ID/g
Skin uptake ([2]; 1 h p.i., i.v. ~1 nmol): 0.44 ± 0.16 % ID/g
Spleen uptake ([2]; 1 h p.i., i.v. ~1 nmol): 1.82 ± 0.37 % ID/g
Stomach uptake ([2]; 1 h p.i., i.v. ~1 nmol): 0.11 ± 0.01 % ID/g
Tumor uptake ([2]; 1 h p.i., i.v. ~1 nmol): 2.05 ± 0.52 % ID/g
Tumor-to-muscle (T/M) ratio ([2]; 4 h p.i.): 48
Blood uptake [2, 6]: 0.02 ± 0.00 % ID/g
Bone uptake [2, 6]: 0.23 ± 0.13 % ID/g
Heart uptake [2, 6]: 0.04 ± 0.01 % ID/g
Intestines uptake [2, 6]: 0.27 ± 0.03 % ID/g
Kidney uptake [2, 6]: 8.20 ± 0.67 % ID/g
Liver uptake [2, 6]: 0.09 ± 0.00 % ID/g
Lung uptake [2, 6]: 0.09 ± 0.01 % ID/g
Muscle uptake [2, 6]: 0.03 ± 0.01 % ID/g
Pancreas uptake [2, 6]: 0.04 ± 0.01 % ID/g
Prostate uptake [2, 6]: 0.09 ± 0.01 % ID/g
Skin uptake [2, 6]: 0.24 ± 0.07 % ID/g
Spleen uptake [2, 6]: 0.09 ± 0.00 % ID/g
Stomach uptake [2, 6]: 0.17 ± 0.13 % ID/g
Tumor uptake [2, 6]: 0.27 ± 0.14 % ID/g
Blood uptake ([2]; 4 h p.i., i.v. ~1 nmol): 0.02 ± 0.01 % ID/g
Bone uptake ([2]; 4 h p.i., i.v. ~1 nmol): 0.11 ± 0.06 % ID/g
Heart uptake ([2]; 4 h p.i., i.v. ~1 nmol): 0.04 ± 0.01 % ID/g
Intestines uptake ([2]; 4 h p.i., i.v. ~1 nmol): 0.30 ± 0.05 % ID/g
Kidney uptake ([2]; 4 h p.i., i.v. ~1 nmol): 13.55 ± 1.04 % ID/g
Liver uptake ([2]; 4 h p.i., i.v. ~1 nmol): 0.10 ± 0.01 % ID/g
Lung uptake ([2]; 4 h p.i., i.v. ~1 nmol): 0.12 ± 0.03 % ID/g
Muscle uptake ([2]; 4 h p.i., i.v. ~1 nmol): 0.03 ± 0.02 % ID/g
Pancreas uptake ([2]; 4 h p.i., i.v. ~1 nmol): 0.06 ± 0.03 % ID/g
Prostate uptake ([2]; 4 h p.i., i.v. ~1 nmol): 0.18 ± 0.17 % ID/g
Skin uptake ([2]; 4 h p.i., i.v. ~1 nmol): 0.24 ± 0.18 % ID/g
Spleen uptake ([2]; 4 h p.i., i.v. ~1 nmol): 0.30 ± 0.09 % ID/g
Stomach uptake ([2]; 4 h p.i., i.v. ~1 nmol): 0.09 ± 0.06 % ID/g
Tumor uptake ([2]; 4 h p.i., i.v. ~1 nmol): 1.23 ± 0.59 % ID/g
Tumor-to-muscle (T/M) ratio ([2]; 24 h p.i.): 14
Bone uptake ([2]; 24 h p.i., i.v. ~1 nmol): 0.13 ± 0.04 % ID/g
Heart uptake ([2]; 24 h p.i., i.v. ~1 nmol): 0.03 ± 0.01 % ID/g
Intestines uptake ([2]; 24 h p.i., i.v. ~1 nmol): 0.04 ± 0.02 % ID/g
Kidney uptake ([2]; 24 h p.i., i.v. ~1 nmol): 5.89 ± 1.49 % ID/g
Liver uptake ([2]; 24 h p.i., i.v. ~1 nmol): 0.06 ± 0.01 % ID/g
Lung uptake ([2]; 24 h p.i., i.v. ~1 nmol): 0.05 ± 0.01 % ID/g
Muscle uptake ([2]; 24 h p.i., i.v. ~1 nmol): 0.03 ± 0.00 % ID/g
Pancreas uptake ([2]; 24 h p.i., i.v. ~1 nmol): 0.03 ± 0.01 % ID/g
Prostate uptake ([2]; 24 h p.i., i.v. ~1 nmol): 0.08 ± 0.03 % ID/g
Skin uptake ([2]; 24 h p.i., i.v. ~1 nmol): 0.15 ± 0.01 % ID/g
Spleen uptake ([2]; 24 h p.i., i.v. ~1 nmol): 0.09 ± 0.02 % ID/g
Stomach uptake ([2]; 24 h p.i., i.v. ~1 nmol): 0.02 ± 0.01 % ID/g
Tumor uptake ([2]; 24 h p.i., i.v. ~1 nmol): 0.61 ± 0.40 % ID/g
Tumor uptake ([2]; 24 h p.i., i.v. ~1 nmol, listed as [111In]In-22): 0.41 ± 0.08 % ID/g
Stability in PBS (%) [3]: 95.4%
Stability in Mouse Serum (%) ([4]; 24 h post-incubation, 37 °C, indium-111 labeled, intact fraction): 95.1%
Proteolytic degradation ([4]; mouse serum up to 24 h): No proteolytic degradation
logD [5]: −3.26 ± 0.05
